Test results taken from patent publication US20230094227A1, “NOVEL FK506 DERIVATIVE AND COMPOSITION COMPRISING SAME FOR PROMOTING HAIR GROWTH” (SEOUL NATIONAL UNIVERSITY R&DB FOUNDATION, priority 2020, published 2023).
In brackets after ≈: the same amount, converted by molar mass.

Tested on: CD4+ T cells
Test: in vitro T-cell activity assay (CD4+ T cell proliferation by CTV intensity, flow cytometry)
Type: cell-based, B6J mice
Conditions: CD3/CD28-activated mouse spleen CD4+ T cells, 72 hours culture; for IC50: Mus musculus, CD4+ T, 72 h, read-out: Immunosuppression IC50
Source text: The degree of decrease in immunosuppressive activity of the four novel compounds was investigated by using the conventional in vitro T-cell activity assay (J. Immunol. 143: 718-726, 1989). The division of CD4+ T cells is an indicator that an immune response is taking place, and when CD4+ T cells are stained with Cell Trace™ Violet (CTV) and the cells divide according to the immune response and the T cells proliferate, a phenomenon in which the CTV retention of each cell decreases appears, and thus, the degree of immunosuppressive activity was investigated using this as an indicator.
Single cells were isolated from the spleen of 6 to 8 week-old B6J mice, and CD4+ T cells were isolated using the MagniSort® Mouse CD4 T cell Enrichment Kit (eBioscience). CD4+ T cells were stained with Cell Trace™ Violet (CTV) Cell Proliferation Kit (Molecular Probes), and FK506 or the four novel compounds were added to a concentration of 0.01 ng/mL, 0.1 ng/mL, 1 ng/mL, 10 ng/mL, 100 ng/mL or […], and then, it was cultured for 72 hours. Dynabeads® Mouse T-Activator CD3/CD28 (Gibco) was used for T cell activation. As a control group, non-activated T cells were used. After culture, CTV intensity was analyzed by flow cytometry.

Compound	IC50 [µg/mL]	Immunosuppression IC50 [µg/mL]
CCC[C@@H]1/C=C(\C)C[C@H](C)C[C@H](OC)[C@H]2O[C@@](O)(CC(=O)N3CCC[C@H]3C(=O)O[C@H](/C(C)=C/[C@@H]3CC[C@@H](O)[C@H](O)C3)[C@H](C)[C@@H](O)CC1=O)[C@H](C)C[C@@H]2OC [9-deoxo-31-O-demethyl-36,37-dihydro-prolylFK506]	5.56 (≈ 7.27 µM)	
CCC[C@@H]1/C=C(\C)C[C@H](C)C[C@H](OC)[C@H]2O[C@@](O)(CC(=O)N3CCC[C@H]3C(=O)O[C@H](/C(C)=C/[C@@H]3CC[C@@H](O)[C@H](OC)C3)[C@H](C)[C@@H](O)CC1=O)[C@H](C)C[C@@H]2OC [9-deoxo-36,37-dihydro-prolylFK506]	3.09 (≈ 3.97 µM)	
CC[C@@H]1/C=C(\C)C[C@H](C)C[C@H](OC)[C@H]2O[C@@](O)(CC(=O)N3CCC[C@H]3C(=O)O[C@H](/C(C)=C/[C@@H]3CC[C@@H](O)[C@H](O)C3)[C@H](C)[C@@H](O)CC1=O)[C@H](C)C[C@@H]2OC [9-deoxo-prolylFK520]		3.2888
C=CC[C@@H]1/C=C(\C)C[C@H](C)C[C@H](OC)[C@H]2O[C@@](O)(C(=O)C(=O)N3CCCC[C@H]3C(=O)O[C@H](/C(C)=C/[C@@H]3CC[C@@H](O)[C@H](OC)C3)[C@H](C)[C@@H](O)CC1=O)[C@H](C)C[C@@H]2OC [FK506]	2.7e-05 (≈ 3.36e-05 µM)	
